These results are taken from ChEMBL document CHEMBL4229487, “Cyclic analogue of S-benzylisothiourea that suppresses kynurenine production without inhibiting indoleamine 2,3-dioxygenase activity” (Bioorg Med Chem Lett, 2018).

Data set [1] concerns A-431. The data set can be described thus: Inhibition of kynurenine production in IFNgamma-treated human A431 cells at 1 uM after 24 hrs in presence of tryptophan relative to control. The format is functional. Particulars: A-431, 24 h.
The target in data set [2] is Indoleamine 2,3-dioxygenase 1 (Homo sapiens) (UniProt P14902). The data set can be described thus: Inhibition of recombinant human IDO at 10 uM using L-tryptophan as substrate after 60 mins relative to control.
Data set [3] concerns A-431. Nature of the data set: Cytotoxicity against human A431 cells. The format is cell-based.
The subject of data set [4] is A-431. The data set can be described thus: Inhibition of IFNgamma-induced IDO expression in human A431 cells after 24 hrs by Western blot method. Type of data set: functional, cell-based. (In western blotting, separated proteins are transferred to a membrane and probed.)
The subject of data set [5] is A-431. Nature of the data set: Inhibition of kynurenine production in IFNgamma-treated human A431 cells after 24 hrs in presence of tryptophan. Type of data set: functional, cell-based. Particulars: A-431, 24 h.
Data set [6] concerns A-431. Nature of the data set: Inhibition of IFNgamma-induced STAT1 expression in human A431 cells after 24 hrs by Western blot method. The format is functional, cell-based.
The subject of data set [7] is A-431. Nature of the data set: Cytotoxicity against human A431 cells at 100 uM. The format is cell-based. The following applies: a-431, 100 µM.
Data set [8] relates to A-431. Nature of the data set: Inhibition of kynurenine production in IFNgamma-treated human A431 cells at 10 uM after 24 hrs in presence of tryptophan relative to control. The format is functional. The following applies: A-431, 24 h.

Each structure is given as a SMILES string.

Chain of Indoleamine 2,3-dioxygenase 1 (Homo sapiens) (P14902 whole entry, looked up): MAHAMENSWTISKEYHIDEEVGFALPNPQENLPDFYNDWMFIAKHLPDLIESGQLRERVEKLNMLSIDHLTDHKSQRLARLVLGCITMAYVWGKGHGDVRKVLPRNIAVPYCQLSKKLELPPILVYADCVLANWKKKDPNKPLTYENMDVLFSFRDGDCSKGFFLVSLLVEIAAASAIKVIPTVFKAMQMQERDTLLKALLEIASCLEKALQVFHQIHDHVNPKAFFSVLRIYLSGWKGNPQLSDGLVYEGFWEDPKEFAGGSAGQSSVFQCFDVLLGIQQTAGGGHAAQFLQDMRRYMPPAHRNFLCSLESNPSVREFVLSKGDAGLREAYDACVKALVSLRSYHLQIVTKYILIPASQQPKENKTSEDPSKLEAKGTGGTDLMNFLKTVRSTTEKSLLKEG

As for `Clc1ccc2[nH]c(SCc3ccccc3Oc3ccccc3)nc2c1`, the inhibition at 1 µM in data set [1] was 39%. In addition, in data set [2], the inhibition stood at 30%.

Turning to `Clc1ccc2oc(SCc3ccccc3CCc3ccccc3)nc2c1`, the inhibition at 1 µM in data set [1] was -18%. The inhibition in data set [2] is 21%.

As to `Clc1ccc2[nH]c(SCc3ccccc3/C=C/c3ccccc3)nc2c1`, the inhibition at 1 µM in data set [1] worked out at 15%. For the same compound, the inhibition in data set [2] is -6%.

Turning to `Clc1ccc2[nH]c(SCc3ccccc3CCc3ccccc3)nc2c1`, the inhibition at 1 µM in data set [1] stood at 48%. In data set [2], the inhibition turned out to be 47%. Moreover, in data set [3], the Activity result was “Non-Toxic”.

For `Clc1ccc2[nH]c(SCc3ccccc3SCc3ccccc3)nc2c1`, the inhibition entry in data set [4] is “Dose-dependent effect”; in data set [2], 19%; in data set [6], “Dose-dependent effect”. The IC50 in data set [5] amounted to 0.45 µM. Moreover, the Activity entry in data set [7] is listed as “Non-Toxic”.

On to `Clc1ccc2[nH]c(SCc3ccccc3OCc3ccccc3)nc2c1`, for which the inhibition at 1 µM in data set [1] worked out at 30%. The inhibition in data set [2] is 3%.

As to `Clc1ccc2[nH]c(SCc3ccccc3CCCc3ccccc3)nc2c1`, the inhibition at 1 µM in data set [1] came out at 44%. In addition, the inhibition in data set [2] worked out at 19%.

Take `Clc1ccc2sc(SCc3ccccc3CCc3ccccc3)nc2c1`: in data set [1], the inhibition at 1 µM was -8%. In addition, the inhibition in data set [2] stood at 9%.

In the case of `c1ccc(CCc2ccccc2CSc2nccs2)cc1`, in data set [1], the inhibition at 1 µM came out at 7%. In addition, the inhibition in data set [2] was 31%.

Take `Clc1ccc2[nH]c(SCc3ccccc3Cc3ccccc3)nc2c1`: the inhibition at 1 µM in data set [1] came to 13%. Also, the inhibition in data set [2] came to 46%.

Take `c1ccc(CCc2ccccc2CSC2=NCCS2)cc1`: the inhibition at 1 µM in data set [1] was found to be 0%. Besides, the inhibition in data set [2] is 0%.

For `O=S(=O)(Cc1ccccc1)c1ccccc1CSc1nc2cc(Cl)ccc2[nH]1`, the inhibition at 1 µM in data set [1] is 1%. Also, the inhibition in data set [2] stood at 24%.

On to `c1ccc(CCc2ccccc2CSC2=NCCN2)cc1`, for which the inhibition at 1 µM in data set [1] was 7%. In addition, the inhibition in data set [2] came out at 17%.

Take `[O-][S+](Cc1ccccc1)c1ccccc1CSc1nc2cc(Cl)ccc2[nH]1` (stereo not drawn): the inhibition at 1 µM in data set [1] came to 30%. In data set [2], the inhibition worked out at 11%.

As to `N=C(N)SCc1ccccc1`, in data set [8], the inhibition at 10 µM worked out at 44%.

With `Clc1ccc2[nH]c(SCc3ccccc3C#Cc3ccccc3)nc2c1`, the inhibition at 1 µM in data set [1] was 6%. In data set [2], the inhibition was 52%.

With `c1ccc(CCc2ccccc2CSc2nc3ccccc3[nH]2)cc1`, in data set [1], the inhibition at 1 µM worked out at 43%. Also, in data set [2], the inhibition came out at 43%. Also, the Activity result in data set [3] was “Non-Toxic”.

In the case of `c1ccc(CCc2ccccc2CSc2ncc[nH]2)cc1`, the inhibition at 1 µM in data set [1] was determined as 1%. For the same compound, in data set [2], the inhibition turned out to be 19%.

Consider `Clc1ccc2[nH]c(SCc3ccccc3/C=C\c3ccccc3)nc2c1`, for which, in data set [2], the inhibition worked out at 49%. The IC50 in data set [5] turned out to be 0.34 µM. In addition, the Activity result in data set [7] is recorded as “Non-Toxic”.

The inhibition is the change of the read-out against control, counted positive when it falls. One may read the IC50 as the midpoint of a concentration-inhibition curve.
